Patent publication US20060241114A1, “Derivatives of azasugars as anticancer agents” (priority 2003, published 2006)

Experiments:
[1] = system: DU145 (prostate carcinoma); experiment: In vitro growth inhibition screen (sulphorhodamine B), DU145; assay type: cell-based, human; settings: DU145 cells, incubated for 48 hours, sulphorhodamine B dye; read-out: GI50 (concentration which inhibits the cell growth by 50%), DU145 Prostate carcinoma
Summary of the method: (§1)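 SRB assay, 48 h treatment, RPMI 1640 + 10% FCS, 37° C, 5% CO2; dose range ≧100 μM–10 nM in ten-fold steps; OD 490 nm; GI50 derived.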

[2] = system: HT29 (colorectal adenocarcinoma); experiment: In vitro growth inhibition screen (sulphorhodamine B), HT29; assay type: cell-based, human; settings: HT29 cells, incubated for 48 hours, sulphorhodamine B dye; read-out: GI50 (concentration which inhibits the cell growth by 50%), HT29 Colorectal adenocarcinoma
Summary of the method: as §1

[3] = system: U251 (human glioblastoma); experiment: In vitro growth inhibition screen (sulphorhodamine B), U251; assay type: cell-based; settings: U251 cells, incubated for 48 hours, sulphorhodamine B dye; read-out: GI50 (concentration which inhibits the cell growth by 50%), U251 Human glioblastoma astrocytoma
Summary of the method: as §1

[4] = system: MCF7ADR (adriamycin resistant breast adenocarcinoma); experiment: In vitro growth inhibition screen (sulphorhodamine B), MCF7ADR; assay type: cell-based, human; settings: MCF7ADR cells, incubated for 48 hours, sulphorhodamine B dye; read-out: GI50 (concentration which inhibits the cell growth by 50%), MCF7ADR Adriamycin Resistant Breast adenocarcinoma
Summary of the method: as §1

[5] = system: MCF7 (breast adenocarcinoma); experiment: In vitro growth inhibition screen (sulphorhodamine B), MCF7; assay type: cell-based, human; settings: MCF7 cells, incubated for 48 hours, sulphorhodamine B dye; read-out: GI50 (concentration which inhibits the cell growth by 50%), MCF7 Breast adenocarcinoma
Summary of the method: as §1

[6] = system: LOX (melanoma); experiment: In vitro growth inhibition screen (sulphorhodamine B), LOX; assay type: cell-based, human; settings: LOX cells, incubated for 48 hours, sulphorhodamine B dye; read-out: GI50 (concentration which inhibits the cell growth by 50%), LOX Melanoma
Summary of the method: as §1

GI50 [1] | GI50 [2] | GI50 [3] | GI50 [4] | GI50 [5] | GI50 [6] | SMILES
148 µM | 92.9 µM | > 419 µM | > 419 µM | 397 µM | > 419 µM | C=CCN1C(=O)[C@H](OCc2ccccc2)[C@@H](OCc2ccccc2)[C@H](OCc2ccccc2)[C@H]1COC(=O)c1cccs1 [Compound No. 45]
153 µM | 49.3 µM | 155 µM | 68.2 µM | 14.7 µM | 51.4 µM | CCCN1C(=O)[C@H](OCc2ccccc2)[C@@H](OCc2ccccc2)[C@H](OCc2ccccc2)[C@H]1CNC(=O)c1ccc(F)cc1F [Compound No. 47, 2,3,4-Tri-O-benzyl-6-N-{[2,4-difluorophenyl]carboxamido}-N-propyl-D-gluco-δ-lactam]
104 µM | 67.9 µM | 12.9 µM | 58.4 µM | 18.8 µM | 31.8 µM | CCCN1C(=O)[C@H](OCc2ccccc2)[C@@H](OCc2ccccc2)[C@H](OCc2ccccc2)[C@H]1CNC(=O)C12CC3CC(CC(C3)C1)C2 [Compound No. 48, 2,3,4-Tri-O-benzyl-6-(adamantanecarboxamido}-N-propyl-D-gluco-δ-lactam]
352 µM | 131 µM | 122 µM | 251 µM | 177 µM | 133 µM | CCCN1C(=O)[C@H](O)[C@@H](O)[C@H](O)[C@H]1CNC(=O)Nc1ccc(F)cc1F [Compound No. 49, 6-N-{[2,4Difluorophenyl]aminocarbonylamino}-N-propyl-D-gluco-δ-lactam]
7.2 µM | 6.8 µM | 2.9 µM | 0.8 µM | 6 µM | 0.9 µM | CCCN1C(=O)[C@H](OCc2ccccc2)[C@@H](OCc2ccccc2)[C@H](OCc2ccccc2)[C@H]1CNC(=O)CCl [Compound No. 52, 2,3,4-Tri-O-benzyl-6-N-{2-[chloro]-acetyl}-N-propyl-D-gluco-δ-lactam]
8.8 µM | 9.3 µM | 12.9 µM | 10 µM | 6.6 µM | 8.3 µM | CCCN1C(=O)[C@H](OCc2ccccc2)[C@@H](OCc2ccccc2)[C@H](OCc2ccccc2)[C@H]1CNC(=O)Cn1cncn1 [Compound No. 53, 2,3,4-Tri-O-benzyl-N-propyl-6-{2-[triazolyl]-acetyl}-D-gluco-δ-lactam]
5 µM | 3.6 µM | 3.2 µM | 6.6 µM | 4.1 µM | 2.3 µM | CCCN1C(=O)[C@H](OCc2ccccc2)[C@@H](OCc2ccccc2)[C@H](OCc2ccccc2)[C@H]1CNC(=O)CN1CCN(c2ncccn2)CC1 [Compound No. 54, 2,3,4-Tri-O-benzyl-6-N-{2-[4-(pyrimidyl)piperazinyl]acetyl}-N-propyl-D-gluco-δ-lactam]
4.1 µM | 4.7 µM | 4.1 µM | 10.2 µM | 8.2 µM | 3.3 µM | CCCN1C(=O)[C@H](OCc2ccccc2)[C@@H](OCc2ccccc2)[C@H](OCc2ccccc2)[C@H]1CNC(=O)CNc1ccc(F)cc1 [Compound No. 55, 2,3,4-Tri-O-benzyl-6-N-{2-[4-fluoroanilino]acetyl}-N-propyl-D-gluco-δ-lactam]
10.7 µM | 22.8 µM | 40.5 µM | 24.5 µM | 40.3 µM | 12 µM | CCCN1C(=O)[C@H](OCc2ccccc2)[C@@H](OCc2ccccc2)[C@H](OCc2ccccc2)[C@H]1COC(=O)CN1C(=O)CCCC1=O [Compound No. 56, 2,3,4-Tri-O-benzyl-6-{2-[2,6-diketopiperidino]acetyl}-N-propyl-D-gluco-δ-lactam]
64.4 µM | 22.7 µM | 154 µM | 247 µM | 20.1 µM | 25.1 µM | CCCN1C(=O)[C@H](OCc2ccccc2)[C@@H](OCc2ccccc2)[C@H](OCc2ccccc2)[C@H]1CNC(=O)Cn1ncn(-c2ccc(Cl)cc2)c1=O [Compound No. 57, 2,3,4-Tri-O-benzyl-6-N-{2-[4-chlorophenyl-3-(2H,4H)-1,2,4-triazol-3-onyl]acetyl}-N-propyl-D-gluco-δ-lactam]
19.4 µM | 7.9 µM | 13.4 µM | 10.2 µM | 8.2 µM | 2.8 µM | CCCN1C(=O)[C@H](OCc2ccccc2)[C@@H](OCc2ccccc2)[C@H](OCc2ccccc2)[C@H]1CNC(=O)CN1CCN(c2ccc(F)cc2)CC1 [Compound No. 58, 2,3,4-Tri-O-benzyl-6-N-{2-[4-(4-fluorophenyl)-piperazin-1-yl]acetyl}-N-propyl-D-gluco-δ-lactam]
12.2 µM | 1.9 µM | 12.6 µM | 25.3 µM | 8.1 µM | 3.8 µM | CCCN1C(=O)C(OCc2ccccc2)C(OCc2ccccc2)C(OCc2ccccc2)C1CNC(=O)CN1CCN(C)CC1 [Compound No. 59, 2,3,4-Tri-O-benzyl-6-N-{2-[N-(methyl)piperazin-1-yl]acetyl}-N-propyl-D-gluco-δ-lactam]
108 µM | 258 µM | 190 µM | 281 µM | 101 µM | 158 µM | CCCN1C(=O)[C@H](OCc2ccccc2)[C@@H](OCc2ccccc2)[C@H](OCc2ccccc2)[C@H]1CNC(=O)Cn1ncn(-c2ccc(N3CCN(c4ccc(Cl)cc4)CC3)cc2)c1=O [Compound No. 60, 2,3,4-Tri-O-benzyl-6-N-{2-[(4-(4-(chlorophenyl)-piperazin-1-yl)-phenyl)-3(2H,4H)-1,2,4-triazol-3-onyl]acetyl}-H-propyl-D-gluco-δ-lactam]
195 µM | > 618 µM | > 618 µM | > 618 µM | > 618 µM | > 618 µM | CCCN1C(=O)[C@H](OCc2ccccc2)[C@@H](OCc2ccccc2)[C@H](OCc2ccccc2)[C@H]1CNC(=O)CN1C[C@H](OCc2ccccc2)[C@@H](OCc2ccccc2)[C@H](OCc2ccccc2)[C@H]1COCc1ccccc1 [Compound No. 61, 2,3,4-Tri-O-benzyl-6-N-{2-[2,3,4,6-tetra-O-benzyl-1,5-dideoxy-1,5-imino-glucitolyl]acetyl}-N-propyl-D-gluco-δ-lactam]
24.3 µM | 24.9 µM | 30 µM | > 402 µM | > 402 µM | 37.7 µM | CCCN1C(=O)[C@H](OCc2ccccc2)[C@@H](OCc2ccccc2)[C@H](OCc2ccccc2)[C@H]1CNC(=O)CN1CCN(c2c(CC)cccc2CC)CC1 [Compound No. 62, 2,3,4-Tri-O-benzyl-6-N-{2-[N-(2,6-diethylphenyl)piperazinyl]acetyl}-N-propyl-D-gluco-δ-lactam]
60.6 µM | 42 µM | 117 µM | 246 µM | 66.8 µM | 55.3 µM | CCCN1C(=O)[C@H](OCc2ccccc2)[C@@H](OCc2ccccc2)[C@H](OCc2ccccc2)[C@H]1CNC(=O)CN1C(=O)c2ccccc2C1=O [Compound No. 63]
12.5 µM | 8.1 µM | 3.7 µM | 4.3 µM | 1.5 µM | 6.3 µM | CCCN1C(=O)[C@H](OCc2ccccc2)[C@@H](OCc2ccccc2)[C@H](OCc2ccccc2)[C@H]1CNC(=O)CN1CCN(c2ccc(Cl)cc2)CC1 [Compound No. 64, 2,3,4-Tri-O-benzyl-6-N-{2-[4-(4-chlorophenyl)piperazinyl]acetyl}-N-propyl-D-gluco-δ-lactam]
13.1 µM | 5.6 µM | 3.4 µM | 3.5 µM | 2 µM | 4 µM | CCCN1C(=O)[C@H](OCc2ccccc2)[C@@H](OCc2ccccc2)[C@H](OCc2ccccc2)[C@H]1CNC(=O)CN1CCN(c2cccc(C(F)(F)F)c2)CC1 [Compound No. 65, 2,3,4-Tri-O-benzyl-6-N-{2-[4-(3-(trifluoromethyl)phenyl)piperazin-1-yl]acetyl}-N-propyl-D-gluco-δ-lactam]
82.9 µM | 149 µM | 142 µM | 196 µM | 124 µM | 58.2 µM | CCCN1C(=O)[C@H](O)[C@@H](O)[C@H](O)[C@H]1CNC(=O)Cn1cncn1 [Compound No. 66, N-Propyl-6-{2-[triazolyl]-acetyl}-D-gluco-δ-lactam]

SMILES | GI50 [1] | GI50 [2] | GI50 [3] | GI50 [4] | GI50 [5] | GI50 [6]
CCCN1C(=O)[C@H](OCc2ccccc2)[C@@H](OCc2ccccc2)[C@H](OCc2ccccc2)[C@H]1CNC(=O)c1cccs1 [Compound No. 46, 2,3,4-Tri-O-benzyl-N-propyl-6-{[2-thiophene]carboxamido}-D-gluco-δ-lactam] | 83.8 µM | 3.3 µM | 105 µM | 83.4 µM | 18.4 µM | 178 µM
CCCN1C(=O)[C@H](O)[C@@H](O)[C@H](O)[C@H]1CNC(=O)C12CC3CC(CC(C3)C1)C2 [Compound No. 50, 6-(Adamantanecarboxamido)-N-propyl-D-gluco-δ-lactam] | 108 µM | 38.1 µM | 144 µM | 138 µM | 82.8 µM | 97.2 µM
